From ChEMBL document CHEMBL1145267, “Antioxidant and antiproliferative activity of curcumin semicarbazone” (2005) come the findings set out here.

Holding throughout (type): functional
Test [1] is filed under the species Rattus norvegicus. Nature of the test: Compound (10 uM) tested for percent inhibition of […] induced lipid peroxidation in rat liver microsomes; Range 80-60%. Background: Liver microsomes are a subcellular fraction often used to study metabolism.
Test [2] deals with MCF7. Briefly: Compound tested for percent viability of human MCF-7 cell line at 1 mg/mL concentration after 24 hrs by MTT method.
For test [3], the species on record is Rattus norvegicus. Briefly: Compound (10 uM) tested for percent inhibition of […] induced lipid peroxidation in rat liver microsomes; Range 85-54%.

Structures are written as SMILES.

The inhibition is how much of the control response was suppressed. In test [1], `COc1cc(/C=C/C(=O)CC(=O)/C=C/c2ccc(O)c(OC)c2)ccc1O` [CURCUMIN] showed an inhibition of 80%. Further, in test [2], the Viability turned out to be 64%.
Regarding `COc1cc(/C=C/C(=O)CC(/C=C/c2ccc(O)c(OC)c2)=N/NC(N)=O)ccc1O`, in test [2], the Viability is on record as 26%. Besides, the inhibition in test [3] came out at 85%.
